The record followed here is patent publication US20140296212A1, “SUBSTITUTED PHENOXYPROPYLCYCLOAMINE DERIVATIVES AS HISTAMINE-3 (H3) RECEPTOR LIGANDS” (CEPHALON, INC., priority 2009, published 2014).

For data set [1], the target named is T1, human H3 receptor (Homo sapiens, UniProt Q9Y5N1).
T1 construct: expressed in transfected cells
Briefly: Human H3 radioligand binding ([3H]-N-alpha-methylhistamine, SPA). To be noted: membranes of CHO cells expressing human H3. The procedure, abridged: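 Membranes from H3-expressing cells (10 μg protein/well) in 50 mM Tris HCl pH 7.4, 5 mM MgCl2, 0.1% BSA with ~1 nM [3H]-N-alpha-methylhistamine and compound (0.01 nM–30 μM), SPA beads, 4 h, room temperature, dark. Non-specific binding defined with 10 μM clobenpropit; bound radioligand read by scintillation counting.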

Data set [2] concerns the target T2, rat histamine H3 receptor (Rattus norvegicus, UniProt Q9QYN8).
T2 construct: encoding the entire 445-amino-acid rat histamine H3 receptor; expressed in transfected cells
Briefly: Rat H3 radioligand binding ([3H]-N-alpha-methylhistamine, SPA). Conditions: membranes of CHO-A3 cells expressing rat H3; [3H]-N-alpha-methylhistamine; read-out: Rat H3 Ki. The text has this: The rat H3 receptor cDNA was PCR amplified from reverse-transcribed RNA pooled from rat thalamus, hypothalamus, striatum and prefrontal cortex with a sequence corresponding to by #338-1672 of Genbank file #NM_053506, encoding the entire 445-amino-acid rat histamine H3 receptor. This was engineered into the pIRES-neo3 mammalian expression vector, which was stably transfected into the CHO-A3 cell line (Euroscreen, Belgium), followed by clonal selection by limiting dilution. Cells were harvested and cell pellets were frozen (−80° C.). Cell pellets were resuspended in 5 mM Tris-HCl, pH 7.5 with 5 nM EDTA and a cocktail of protease inhibitors (Complete Protease Inhibitor Tablets, Roche Diagnostics). Cells were disrupted using a polytron cell homogenizer and the suspension was centrifuged at 1000×g for 10 minutes at 4° C. The pellet was discarded and the supernatant centrifuged at 40,000×g for 30 min at 4° C. This membrane pellet was washed in membrane buffer containing 50 mM Tris-HCl, pH 7.5 with 0.6 mM EDTA, 5 mM MgCl2 and protease inhibitors, recentrifuged as above and the final pellet resuspended in membrane buffer plus 250 mM sucrose and frozen at −80° C.
Membranes were resuspended in 50 mM Tris HCl (pH 7.4), 5 mM MgCl2, 0.1% BSA. The membrane suspensions (10 μg protein per well) were incubated in a 96 well microtiter plate with [^3H]-N-alpha-methylhistamine (approximately 1 nM final concentration), test compounds at various concentrations (0.01 nM-30 μM) and scintillation proximity beads (Perkin Elmer, FlashBlueGPCR Scintillating Beads) in a final volume of 80 μl for 4 hours at room temperature, protected from light. Non-specific binding was determined in the presence of 10 μM clobenpropit. Radioligand bound to receptor, and therefore in proximity to the scintillation beads, was measured using a MicroBeta scintillation counter.

T1 sequence (Q9Y5N1 whole entry): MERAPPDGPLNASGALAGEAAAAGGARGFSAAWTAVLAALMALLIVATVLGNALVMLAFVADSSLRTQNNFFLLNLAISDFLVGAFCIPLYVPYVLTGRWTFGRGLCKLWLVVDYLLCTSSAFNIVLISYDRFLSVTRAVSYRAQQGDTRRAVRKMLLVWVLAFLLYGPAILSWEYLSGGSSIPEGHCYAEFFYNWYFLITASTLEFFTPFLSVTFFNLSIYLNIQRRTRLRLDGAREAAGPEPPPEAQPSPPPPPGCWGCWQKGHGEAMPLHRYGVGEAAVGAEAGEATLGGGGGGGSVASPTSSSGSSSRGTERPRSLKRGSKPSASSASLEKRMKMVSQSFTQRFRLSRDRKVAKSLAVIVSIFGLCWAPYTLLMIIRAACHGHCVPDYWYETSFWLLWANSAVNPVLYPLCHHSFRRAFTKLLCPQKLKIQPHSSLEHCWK
T2 sequence (Q9QYN8 whole entry): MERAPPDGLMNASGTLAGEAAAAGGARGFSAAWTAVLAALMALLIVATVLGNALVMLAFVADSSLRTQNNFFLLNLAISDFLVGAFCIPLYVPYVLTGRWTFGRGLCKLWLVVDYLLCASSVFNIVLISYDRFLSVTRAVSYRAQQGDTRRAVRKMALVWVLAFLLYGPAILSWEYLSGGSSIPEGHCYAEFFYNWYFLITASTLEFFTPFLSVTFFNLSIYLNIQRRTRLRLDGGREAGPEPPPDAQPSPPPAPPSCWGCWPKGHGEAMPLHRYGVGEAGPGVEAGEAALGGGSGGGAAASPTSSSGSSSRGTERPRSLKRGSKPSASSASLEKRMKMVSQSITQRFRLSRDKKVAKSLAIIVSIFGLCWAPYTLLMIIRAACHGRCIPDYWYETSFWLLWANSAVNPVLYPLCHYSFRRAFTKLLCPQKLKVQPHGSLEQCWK

The molecule `C[C@@H]1CCCN1CCCOc1ccc(C(=O)CN2CCCC(C)(C)C2)cc1` [Example 55, 2-(3,3-Dimethyl-piperidin-1-yl)-1-{4-[3-((R)-2-methyl-pyrrolidin-1-yl)-propoxy]-phenyl}-ethanone] came in with a melting point of 108 to 120 °C. The same molecule had a Ki in data set [1] of 0.1 to 100 nM. Further, the Ki in data set [2] was 0.1 to 100 nM.

Take `O=C1CN(CCCOc2ccc(C(=O)CN3CCOCC3)cc2)CCN1` [Example 57, 4-{3-[4-(2-Morpholin-4-yl-acetyl)-phenoxy]-propyl}-piperazin-2-one]: the melting point worked out at 230 °C. The molecule further gave a Ki in data set [1] above 1000 nM. Also, the inhibition constant (Ki) in data set [2] is above 1000 nM.

Consider `CC1CCC(C)N1CC(=O)c1ccc(OCCCN2CCC[C@H]2C)cc1` (stereo partly drawn) [Example 58, 2-(2,5-Dimethyl-pyrrolidin-1-yl)-1-{4-[3-((R)-2-methyl-pyrrolidin-1-yl)-propoxy]-phenyl}-ethanone], for which the melting point fell in the range of 100 to 106 °C. In addition, in data set [1], the Ki lay within 0.1 to 100 nM. In addition, in data set [2], the Ki lay in the range of 0.1 to 100 nM.

In the case of `CS(=O)(=O)N1CCN(CCCOc2ccc(C(=O)CN3CCOCC3)cc2)CC1` [Example 59, 1-{4-[3-(4-Methanesulfonyl-piperazin-1-yl)-propoxy]-phenyl}-2-morpholin-4-yl-ethanone], the melting point was in the range of 246 to 248 °C. This molecule displayed a Ki in data set [1] above 1000 nM. Moreover, in data set [2], the Ki was above 1000 nM.

Take `CC1CCCC(C)N1CC(=O)c1ccc(OCCCN2CCC[C@H]2C)cc1` (stereo partly drawn) [Example 61, 2-(2,6-Dimethyl-piperidin-1-yl)-1-{4-[3-((R)-2-methyl-pyrrolidin-1-yl)-propoxy]-phenyl}-ethanone]: the melting point lay in the range of 127 to 135 °C. In data set [1], this molecule came in with an inhibition constant Ki of 0.1 to 100 nM. In addition, in data set [2], the Ki was in the range of 0.1 to 100 nM.

In the case of `O=C(CN1CCOCC1)c1ccc(OCCCN2CCN3CCCCC3C2)cc1` (stereo not drawn) [Example 62, 2-Morpholin-4-yl-1-{4-[3-(octahydro-pyrido[1,2-a]pyrazin-2-yl)-propoxy]-phenyl}-ethanone], the melting point amounted to 251 °C. Also, the Ki in data set [1] fell in the range of 501 to 1000 nM. Moreover, the Ki in data set [2] was above 1000 nM.

For `CC(=O)N1CCN(CC(=O)c2ccc(OCCCN3CCC[C@H]3C)cc2)CC1` [Example 63, 2-(4-Acetyl-piperazin-1-yl)-1-{4-[3-((R)-2-methyl-pyrrolidin-1-yl)-propoxy]-phenyl}-ethanone], the melting point was in the range of 125 to 133 °C. Moreover, the Ki in data set [1] lay in the range of 0.1 to 100 nM. In addition, the Ki in data set [2] lay in the range of 0.1 to 100 nM.

`O=C(CN1CCOCC1)c1ccc(OCCCN2CCCCC2)cc1F` [Example 65, 1-[2-Fluoro-4-(3-piperidin-1-yl-propoxy)-phenyl]-2-morpholin-4-yl-ethanone] came in with a melting point of 170 to 172 °C. The same molecule came in with a Ki in data set [1] of 101 to 500 nM. Besides, the Ki in data set [2] is above 1000 nM.

Regarding `C[C@@H]1CCCN1CCCOc1ccc(C(=O)CN2CCN(S(C)(=O)=O)CC2)cc1` [Example 66, 2-(4-Methanesulfonyl-piperazin-1-yl)-1-{4-[3-((R)-2-methyl-pyrrolidin-1-yl)-propoxy]-phenyl}-ethanone], the melting point was 120 to 126 °C. Moreover, in data set [1], the inhibition constant (Ki) lay within 0.1 to 100 nM. Further, the Ki in data set [2] fell in the range of 0.1 to 100 nM.

Take `C[C@@H]1CCCN1CCCOc1ccc(C(=O)CN2CCN(S(=O)(=O)c3ccccc3)CC2)cc1` [Example 69, 2-(4-Benzenesulfonyl-piperazin-1-yl)-1-{4-[3-((R)-2-methyl-pyrrolidin-1-yl)-propoxy]-phenyl}-ethanone]: the melting point was 124 to 135 °C. This molecule showed a Ki in data set [1] of 0.1 to 100 nM. Moreover, in data set [2], the Ki fell in the range of 0.1 to 100 nM.

`C[C@@H]1CCCN1CCCOc1ccc(C(=O)CN2CCN(C(=O)N3CCOCC3)CC2)cc1` [Example 70, 1-{4-[3-((R)-2-Methyl-pyrrolidin-1-yl)-propoxy]-phenyl}-2-[4-(morpholine-4-carbonyl)-piperazin-1-yl]-ethanone] yielded a melting point of 116 to 125 °C. In data set [1], this molecule had a Ki of 0.1 to 100 nM. For the same molecule, the inhibition constant (Ki) in data set [2] was 0.1 to 100 nM.

In the case of `COC[C@H]1CCCN1CCCOc1ccc(C(=O)CN2CCOCC2)cc1` [Example 71, 1-{4-[3-((R)-2-Methoxymethyl-pyrrolidin-1-yl)-propoxy]-phenyl}-2-morpholin-4-yl-ethanone], the melting point was > 200 °C (dec.). Moreover, the Ki in data set [1] was above 1000 nM. In addition, in data set [2], the Ki was above 1000 nM.

Molecule `Cc1cc(OCCCN2CCCCC2)ccc1C(=O)CN1CCOCC1` [Example 72, 1-[2-Methyl-4-(3-piperidin-1-yl-propoxy)-phenyl]-2-morpholin-4-yl-ethanone] returned a melting point of 206 to 215 °C. For the same molecule, in data set [1], the Ki lay within 0.1 to 100 nM. In addition, in data set [2], the Ki was in the range of 101 to 500 nM.

Molecule `C[C@@H]1CCCN1CCCOc1ccc(C(=O)CN2CCN(C(=O)N3CCCC3)CC2)cc1` [Example 75, 1-{4-[3-((R)-2-Methyl-pyrrolidin-1-yl)-propoxy]-phenyl}-2-[4-(pyrrolidine-1-carbonyl)-piperazin-1-yl]-ethanone] had a melting point of 118 to 130 °C. This molecule also registered a Ki in data set [1] of 0.1 to 100 nM. The Ki in data set [2] was in the range of 0.1 to 100 nM.

Turning to `COC[C@@H]1CCCN1CCCOc1ccc(C(=O)CN2CCOCC2)cc1` [Example 76, 1-{4-[3-((S)-2-Methoxymethyl-pyrrolidin-1-yl)-propoxy]-phenyl}-2-morpholin-4-yl-ethanone], the melting point lay in the range of 74 to 76 °C. In data set [1], the Ki was above 1000 nM. Besides, the Ki in data set [2] was above 1000 nM.

Regarding `CC(C)C(=O)N1CCN(CC(=O)c2ccc(OCCCN3CCC[C@H]3C)cc2)CC1` [Example 77, 2-Methyl-1-[4-(2-{4-[3-((R)-2-methyl-pyrrolidin-1-yl)-propoxy]-phenyl}-2-oxo-ethyl)-piperazin-1-yl]-propan-1-one], the melting point was in the range of 220 to 226 °C. The same molecule returned a Ki in data set [1] of 0.1 to 100 nM. Further, the Ki in data set [2] lay in the range of 0.1 to 100 nM.

In the case of `O=C(CN1CCOCC1)c1ccc(OCCCN2CCCCC2)cc1` [Example 78, 2-Morpholin-4-yl-1-[4-(3-piperidin-1-yl-propoxy)-phenyl]-ethanone], the melting point lay within 236 to 243 °C. In data set [1], this molecule gave a Ki of 0.1 to 100 nM. The inhibitory constant (Ki) in data set [2] lay in the range of 101 to 500 nM.

The molecule `C[C@@H]1CCCN1CCCOc1ccc(C(=O)CN2CCN(C(=O)N(C)C)CC2)cc1` [Example 79, 4-(2-{4-[3-((R)-2-Methyl-pyrrolidin-1-yl)-propoxy]-phenyl}-2-oxo-ethyl)-piperazine-1-carboxylic acid dimethylamide] had a melting point of 120 to 126 °C. Also, in data set [1], the Ki was in the range of 0.1 to 100 nM. Besides, in data set [2], the Ki was 0.1 to 100 nM.

Take `C[C@@H]1CCCN1CCCOc1ccc(C(=O)CN2CCN(C(=O)c3cccs3)CC2)cc1` [Example 80, 1-{4-[3-((R)-2-Methyl-pyrrolidin-1-yl)-propoxy]-phenyl}-2-[4-(thiophene-2-carbonyl)-piperazin-1-yl]-ethanone]: the melting point was 152 to 156 °C. Moreover, the Ki in data set [1] was 0.1 to 100 nM. In data set [2], the Ki is 0.1 to 100 nM.

In turn, `C[C@@H]1CCCN1CCCOc1ccc(C(=O)CN2CCN(C(=O)c3ccco3)CC2)cc1` [Example 81, 2-[4-(Furan-2-carbonyl)-piperazin-1-yl]-1-{4-[3-((R)-2-methyl-pyrrolidin-1-yl)-propoxy]-phenyl}-ethanone] showed a melting point of 130 to 135 °C. For the same molecule, the inhibition constant Ki in data set [1] lay within 0.1 to 100 nM. Besides, in data set [2], the Ki lay in the range of 0.1 to 100 nM.

Broadly, the Ki is the equilibrium dissociation constant of an inhibitor or competing ligand from its target. A word on the melting point: it is the temperature, or range, at which the solid turns liquid.
